The test system of the assay is MKs. Kind of assay: Shear-induced proPLT production and PLT release by MKs in the microfluidic device (live-cell microscopy). The class given is cell-based, mouse. Particulars: for PLT release: under both static and physiological shear conditions; for shear-induced proPLT production: physiological shear. Here is the method:
Devices were coated with a 0.22 μm filtered 10% BSA solution (Millipore, Billerica, Mass.) for 30 minutes to prevent direct cell contact with glass. Primary MKs and media were infused in the first inlet 118 and second inlet 122, respectively, at a rate of 12.5 μL/hour using a two-syringe microfluidic pump (Harvard Apparatus, Holliston, Mass.). When the first outlet 120 is closed, both input solutions are redirected toward the second outlet 124 causing primary MKs to trap.
For shear cultures, MKs were loaded onto ‘naked’ microfluidic devices (only BSA-coated), and the infusion rate was doubled incrementally from 12.5 μL/hr to 200 μL/hr over a 2 hour period. For static cultures, isolated MKs were pipetted into chambers formed by mounting a glass coverslide coated with 3% BSA onto a […] with a 1 cm hole and cultured for 24 hours. Both static and shear cultures were maintained at 37 degrees C. and 5 percent CO2 and examined on a Zeiss Axiovert 200 (Carl Zeiss, Thornwood, N.Y.) equipped with 10× (numerical aperature, 0.30) Plan-Neofluar air objective. Differential interference contrast (DIC) images were obtained using CCD camera (Hamamatsu Photonics, Boston, Mass.) at either 2 second (shear cultures) or 20 minute (static cultures) intervals. Images were analyzed using the Metamorph version 7.7.2.0 image analysis software (Molecular Devices, Sunnyvale, Calif., USA) and ImageJ software version 1.47p. ProPLT extension rates were determined manually for over 200 MKs from at least three independent samples. For PLT spreading experiments, effluent was collected from microfluidic devices after 2 hours and pipetted into uncoated static culture chambers, described above. PLTs were permitted to contact glass by gravity sedimentation and spreading was captured at 5 second intervals over a 5 minute period.
In vivo BM MKs extend proPLTs in the direction of blood flow and release PLTs, proPLTs, large cytoplasmic fragments (prePLTs), and even whole MKs into sinusoidal blood vessels which may be trapping in the pulmonary microvascular bed, or otherwise maturing in the circulation. To determine the effect of physiological shear on PLT production, mouse fetal liver culture-derived (mFLC) MKs were isolated on culture day 4 and characterized by size and ploidy before being infused into the microfluidic device (shown in FIG. 3A).
While shear rates were kept constant, proPLT extension rates varied at different positions along the shaft, predictive of a regulated cytoskeletal driven mechanism of proPLT elongation (shown in FIG. 4C). […]

Consider 2 compounds from patent US11396016B2, “System and method for a biomimetic fluid processing” (The Brigham and Women's Hospital, Inc., priority 2013, dated 2022).

On to `CCCCCC[C@@H]([C@@H](C)O)n1cnc2c(N)ncnc21` (racemic) [EHNA], for which the PLT release result (1 mM EHNA) is “inhibited”. Further, the “shear-induced proPLT production” value (MKs incubated with 1 mM EHNA prior to infusion in microfluidic device) is “inhibit”.
For the compound `C/C1=C\[C@H](C)C[C@H](C)OC(=O)C[C@H](c2ccc(O)cc2)NC(=O)[C@@H](Cc2c(Br)[nH]c3ccccc23)N(C)C(=O)[C@H](C)NC(=O)[C@@H](C)C1` [Jas, Jasplankinolide], under “5 μM Jas”, the PLT release entry is recorded as “inhibited”. Besides, the “shear-induced proPLT production” value (MKs incubated with 5 μM Jas prior to infusion in microfluidic device) was “inhibit”.
